Data reported in PubChem BioAssay (NCI).
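Following 48 hours of exposure in 96-well plates, responses at five concentrations were used to interpolate endpoints linearly. Here, GI50 denotes the concentration required for 50% inhibition of growth. TGI marks complete inhibition of growth.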

Key:
Assay in all cases: inhibition of tumour cell growth, NCI panel, 48 h
OVCAR-5 ovarian = system: OVCAR-5 ovarian
HOP-92 NSCLC = system: HOP-92 NSCLC
OVCAR-8 ovarian = system: OVCAR-8 ovarian
SR leukemia = system: SR leukemia
786-0 renal = system: 786-0 renal
NCI-H226 lung = system: NCI-H226 lung
ACHN renal = system: ACHN renal
HCC-2998 colon = system: HCC-2998 colon
CAKI-1 renal = system: CAKI-1 renal
MOLT-4 leukemia = system: MOLT-4 leukemia
UACC-257 melanoma = system: UACC-257 melanoma
K-562 leukemia = system: K-562 leukemia
HCT-116 colon = system: HCT-116 colon
OVCAR-3 ovarian = system: OVCAR-3 ovarian
RPMI-8226 leukemia = system: RPMI-8226 leukemia
KM12 colon = system: KM12 colon
SK-OV-3 ovarian = system: SK-OV-3 ovarian
SK-MEL-2 melanoma = system: SK-MEL-2 melanoma
SK-MEL-5 melanoma = system: SK-MEL-5 melanoma
BT-549 breast = system: BT-549 breast
UO-31 renal = system: UO-31 renal
A549 NSCLC = system: A549 NSCLC
SF-539 CNS = system: SF-539 CNS
M14 melanoma = system: M14 melanoma
NCI-H23 lung = system: NCI-H23 lung
MALME-3M melanoma = system: MALME-3M melanoma
IGROV1 ovarian = system: IGROV1 ovarian
NCI-H460 lung = system: NCI-H460 lung
COLO 205 colon = system: COLO 205 colon
A498 renal = system: A498 renal
MDA-MB-435 = system: MDA-MB-435
SNB-19 CNS = system: SNB-19 CNS
HT29 colon = system: HT29 colon
HOP-62 NSCLC = system: HOP-62 NSCLC
UACC-62 melanoma = system: UACC-62 melanoma
NCI-H522 lung = system: NCI-H522 lung
HL-60(TB) leukemia = system: HL-60(TB) leukemia
U251 CNS = system: U251 CNS
HS 578T breast = system: HS 578T breast
DU-145 prostate = system: DU-145 prostate
TK-10 renal = system: TK-10 renal
EKVX NSCLC = system: EKVX NSCLC
SF-268 CNS = system: SF-268 CNS
OVCAR-4 ovarian = system: OVCAR-4 ovarian
SNB-75 CNS = system: SNB-75 CNS
MDA-MB-231 breast = system: MDA-MB-231 breast
PC-3 prostate = system: PC-3 prostate
T-47D breast = system: T-47D breast
NCI/ADR-RES ovarian = system: NCI/ADR-RES ovarian
SN12C renal = system: SN12C renal
SK-MEL-28 melanoma = system: SK-MEL-28 melanoma
CCRF-CEM leukemia = system: CCRF-CEM leukemia
MCF7 breast = system: MCF7 breast

## C#C[C@]1(O)CC[C@H]2[C@@H]3CC=C4c5sc(Nc6cc(OC)ccc6OC)nc5CC[C@]4(C)[C@H]3CC[C@@]21C
OVCAR-5 ovarian
  GI50: 4.14 µM
  TGI: 25.7 µM
HOP-92 NSCLC
  GI50: 4.66 µM
  TGI: 74.7 µM
OVCAR-8 ovarian
  GI50: 2.94 µM
  TGI: > 100 µM
SR leukemia
  GI50: 0.306 µM
  TGI: 24.8 µM
786-0 renal
  GI50: 0.392 µM
  TGI: 5.08 µM
NCI-H226 lung
  GI50: 3.04 µM
  TGI: 20.9 µM
ACHN renal
  GI50: 1.9 µM
  TGI: 16.5 µM
HCC-2998 colon
  GI50: 4.11 µM
  TGI: 23.2 µM
CAKI-1 renal
  GI50: 1.11 µM
  TGI: 4.68 µM
MOLT-4 leukemia
  GI50: 0.367 µM
  TGI: 16.2 µM
UACC-257 melanoma
  GI50: 1.95 µM
  TGI: 9.18 µM
K-562 leukemia
  GI50: 0.553 µM
  TGI: > 100 µM
HCT-116 colon
  GI50: 1.12 µM
  TGI: 2.77 µM
OVCAR-3 ovarian
  GI50: 2.39 µM
  TGI: 9.14 µM
RPMI-8226 leukemia
  GI50: 0.193 µM
  TGI: 0.694 µM
KM12 colon
  GI50: 2.33 µM
  TGI: 11 µM
SK-OV-3 ovarian
  GI50: 1.08 µM
  TGI: 4.37 µM
SK-MEL-2 melanoma
  GI50: 2.28 µM
  TGI: 42.1 µM
SK-MEL-5 melanoma
  GI50: 2.3 µM
  TGI: 5.58 µM
BT-549 breast
  GI50: 0.61 µM
  TGI: 7.03 µM
UO-31 renal
  GI50: 1.41 µM
  TGI: 12.9 µM
A549 NSCLC
  GI50: 3.1 µM
  TGI: 95.7 µM
SF-539 CNS
  GI50: 0.449 µM
  TGI: 1.68 µM
M14 melanoma
  GI50: 1.04 µM
  TGI: 4.08 µM
NCI-H23 lung
  GI50: 2.49 µM
  TGI: 28.3 µM
MALME-3M melanoma
  GI50: 1.69 µM
  TGI: 8.76 µM
IGROV1 ovarian
  GI50: 2.93 µM
  TGI: 25 µM
NCI-H460 lung
  GI50: 2.16 µM
  TGI: 15.1 µM
COLO 205 colon
  GI50: 2.43 µM
  TGI: 7.83 µM
A498 renal
  GI50: 0.429 µM
  TGI: 4.62 µM
MDA-MB-435
  GI50: 2.79 µM
  TGI: 19.2 µM
SNB-19 CNS
  GI50: 3.63 µM
  TGI: 24.3 µM
HT29 colon
  GI50: 1.8 µM
  TGI: > 100 µM
HOP-62 NSCLC
  GI50: 1.96 µM
  TGI: 47.9 µM
UACC-62 melanoma
  GI50: 1.56 µM
  TGI: 9.02 µM
NCI-H522 lung
  GI50: 3.9 µM
  TGI: 29.8 µM
HL-60(TB) leukemia
  GI50: 0.646 µM
  TGI: 4.07 µM
U251 CNS
  GI50: 0.643 µM
  TGI: 13.3 µM
HS 578T breast
  GI50: 0.202 µM
  TGI: 0.597 µM
DU-145 prostate
  GI50: 1.91 µM
  TGI: 7.47 µM
TK-10 renal
  GI50: 4.15 µM
  TGI: 27.5 µM
EKVX NSCLC
  GI50: 2.86 µM
  TGI: 42.5 µM
SF-268 CNS
  GI50: 3.55 µM
  TGI: 33 µM
OVCAR-4 ovarian
  GI50: 4.46 µM
  TGI: > 100 µM
SNB-75 CNS
  GI50: 0.386 µM
  TGI: 13.7 µM
MDA-MB-231 breast
  GI50: 2.36 µM
  TGI: > 100 µM
PC-3 prostate
  GI50: 0.627 µM
  TGI: 30 µM
T-47D breast
  GI50: 3.04 µM
  TGI: > 100 µM
NCI/ADR-RES ovarian
  GI50: 3.11 µM
  TGI: > 100 µM
SN12C renal
  GI50: 3.9 µM
  TGI: 32.7 µM
SK-MEL-28 melanoma
  GI50: 0.406 µM
  TGI: 5.32 µM
CCRF-CEM leukemia
  GI50: 0.619 µM
  TGI: > 100 µM
MCF7 breast
  GI50: 0.454 µM
  TGI: 1.74 µM
